From ChEMBL document CHEMBL1141160, “Structure-based optimization of phenylbutyrate-derived histone deacetylase inhibitors” (J Med Chem, 2005)

These molecules were tested against Histone deacetylase (assay: not given). Conditions: prostate.

Point of comparison: CC(C)(C(=O)Nc1ccc(C(=O)NO)cc1)c1ccccc1, IC50 0.098 µM. Against it:
- O=C(CCc1ccc(NC(=O)CCCc2ccccc2)cc1)NO — 12-fold higher, 1.2 µM
- CC[C@H](C(=O)Nc1ccc(C(=O)NO)cc1)c1ccccc1 — 2.9-fold lower, 0.034 µM
- CC(C)(CCc1ccccc1)C(=O)Nc1ccc(C(=O)NO)cc1 — 3.9-fold lower, 0.025 µM
- CC[C@@H](C(=O)Nc1ccc(C(=O)NO)cc1)c1ccccc1 — within 1.5-fold, 0.068 µM
- O=C(CCCCc1ccccc1)Nc1ccc(C(=O)NO)cc1 — 2.6-fold higher, 0.25 µM
- CN(C(=O)CCCc1ccccc1)c1ccc(C(=O)NO)cc1 — 5.3-fold higher, 0.52 µM
- O=C(NO)c1ccc(NC(=O)c2ccccc2)cc1 — 2.1-fold higher, 0.21 µM
- O=C(CCCc1ccccc1)NCc1ccc(C(=O)NO)cc1 — 5.4-fold higher, 0.53 µM
- O=C(Cc1ccccc1)Nc1ccc(C(=O)NO)cc1 — 1.6-fold higher, 0.157 µM
- CCC(C(=O)Nc1ccc(C(=O)NO)cc1)c1ccccc1 (racemic) — 1.8-fold lower, 0.054 µM

These molecules were tested on DU-145 (assay: cells). Conditions: Homo sapiens, DU-145, 96 h.
Description: Inhibitory concentration against DU-145 prostate cancer cell proliferation over 96 hr

Point of comparison: CC(C)[C@@H](C(=O)Nc1ccc(C(=O)NO)cc1)c1ccccc1, IC50 0.82 µM. Against it:
- CC(C)[C@H](C(=O)Nc1ccc(C(=O)NO)cc1)c1ccccc1 [AR-42] — 7.5-fold lower, 0.11 µM
